Source: ChEMBL document CHEMBL1201861, “Genomics of Drug Sensitity in Cancer screening data, Wellcome Trust Sanger Institute”

tested on: MPP-89; test: cells; type: functional, cell-based, Homo sapiens; conditions: Homo sapiens, MPP-89;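 note: growth inhibition of human MPP-89 cells, read out with a cell viability assay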
Description: SANGER: Inhibition of human MPP-89 cell growth in a cell viability assay.

Structure (SMILES) | IC50 [µM]
COc1cc2ncn(-c3cc(OCc4ccccc4S(C)(=O)=O)c(C#N)s3)c2cc1OC [GSK-319347A] | > 5

tested on: ES4; test: cells; type: functional, cell-based, Homo sapiens; conditions: Homo sapiens, ES4;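 note: growth inhibition of human ES4 cells, read out by a cell viability assay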
Description: SANGER: Inhibition of human ES4 cell growth in a cell viability assay.

Structure (SMILES) | IC50 [µM]
COc1cc2ncn(-c3cc(OCc4ccccc4S(C)(=O)=O)c(C#N)s3)c2cc1OC [GSK-319347A] | > 5

tested on: NB12; test: cells; type: functional, cell-based, Homo sapiens; conditions: Homo sapiens, NB12;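 note: growth inhibition of human NB12 cells, read out by a cell viability assay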
Description: SANGER: Inhibition of human NB12 cell growth in a cell viability assay.

Structure (SMILES) | IC50 [µM]
COc1cc2ncn(-c3cc(OCc4ccccc4S(C)(=O)=O)c(C#N)s3)c2cc1OC [GSK-319347A] | > 5

tested on: NCI-H1650; test: cells; type: functional, cell-based, Homo sapiens; conditions: Homo sapiens, NCI-H1650;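 note: growth inhibition of human NCI-H1650 cells measured by a cell viability assay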
Description: SANGER: Inhibition of human NCI-H1650 cell growth in a cell viability assay.

Structure (SMILES) | IC50 [µM]
COc1cc2ncn(-c3cc(OCc4ccccc4S(C)(=O)=O)c(C#N)s3)c2cc1OC [GSK-319347A] | > 5

tested on: A101D; test: cells; type: functional, cell-based, Homo sapiens; conditions: Homo sapiens, A101D;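 note: growth inhibition of the cell line, measured with a viability assay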
Description: SANGER: Inhibition of human A101D cell growth in a cell viability assay.

Structure (SMILES) | IC50 [µM]
COc1cc2ncn(-c3cc(OCc4ccccc4S(C)(=O)=O)c(C#N)s3)c2cc1OC [GSK-319347A] | > 5

tested on: ES6; test: cells; type: functional, cell-based, Homo sapiens; conditions: Homo sapiens, ES6;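 note: growth inhibition of human ES6 cells, read out with a cell viability assay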
Description: SANGER: Inhibition of human ES6 cell growth in a cell viability assay.

Structure (SMILES) | IC50 [µM]
COc1cc2ncn(-c3cc(OCc4ccccc4S(C)(=O)=O)c(C#N)s3)c2cc1OC [GSK-319347A] | > 5

tested on: NCI-H82; test: cells; type: functional, cell-based, Homo sapiens; conditions: Homo sapiens, NCI-H82;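 note: growth inhibition of NCI-H82 cells, measured with a cell viability readout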
Description: SANGER: Inhibition of human NCI-H82 cell growth in a cell viability assay.

Structure (SMILES) | IC50 [µM]
COc1cc2ncn(-c3cc(OCc4ccccc4S(C)(=O)=O)c(C#N)s3)c2cc1OC [GSK-319347A] | > 5

tested on: NCI-H747; test: cells; type: functional, cell-based, Homo sapiens; conditions: Homo sapiens, NCI-H747;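 note: growth inhibition of human NCI-H747 cells, read out by a cell viability assay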
Description: SANGER: Inhibition of human NCI-H747 cell growth in a cell viability assay.

Structure (SMILES) | IC50 [µM]
COc1cc2ncn(-c3cc(OCc4ccccc4S(C)(=O)=O)c(C#N)s3)c2cc1OC [GSK-319347A] | > 5

tested on: CGTH-W-1; test: cells; type: functional, cell-based, Homo sapiens; conditions: Homo sapiens, CGTH-W-1;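 note: growth inhibition of human CGTH-W-1 cells measured by cell viability assay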
Description: SANGER: Inhibition of human CGTH-W-1 cell growth in a cell viability assay.

Structure (SMILES) | IC50 [µM]
COc1cc2ncn(-c3cc(OCc4ccccc4S(C)(=O)=O)c(C#N)s3)c2cc1OC [GSK-319347A] | > 5

tested on: OVCAR-4; test: cells; type: functional, cell-based, Homo sapiens; conditions: Homo sapiens, OVCAR-4;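 note: growth inhibition of human OVCAR-4 cells, measured with a cell viability assay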
Description: SANGER: Inhibition of human OVCAR-4 cell growth in a cell viability assay.

Structure (SMILES) | IC50 [µM]
COc1cc2ncn(-c3cc(OCc4ccccc4S(C)(=O)=O)c(C#N)s3)c2cc1OC [GSK-319347A] | > 5

tested on: HC-1; test: cells; type: functional, cell-based, Homo sapiens; conditions: Homo sapiens, HC-1;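 note: growth inhibition of HC-1 cells measured by a cell viability assay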
Description: SANGER: Inhibition of human HC-1 cell growth in a cell viability assay.

Structure (SMILES) | IC50 [µM]
COc1cc2ncn(-c3cc(OCc4ccccc4S(C)(=O)=O)c(C#N)s3)c2cc1OC [GSK-319347A] | > 5

tested on: MSTO-211H; test: cells; type: functional, cell-based, Homo sapiens; conditions: Homo sapiens, MSTO-211H
Description: SANGER: Inhibition of human MSTO-211H cell growth in a cell viability assay.

Structure (SMILES) | IC50 [µM]
COc1cc2ncn(-c3cc(OCc4ccccc4S(C)(=O)=O)c(C#N)s3)c2cc1OC [GSK-319347A] | > 5

tested on: SF-268; test: cells; type: functional, cell-based, Homo sapiens; conditions: Homo sapiens, SF-268;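 note: growth inhibition of SF-268 cells determined with a cell viability assay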
Description: SANGER: Inhibition of human SF268 cell growth in a cell viability assay.

Structure (SMILES) | IC50 [µM]
COc1cc2ncn(-c3cc(OCc4ccccc4S(C)(=O)=O)c(C#N)s3)c2cc1OC [GSK-319347A] | > 5

tested on: OCUB-M; test: cells; type: functional, cell-based, Homo sapiens; conditions: Homo sapiens, OCUB-M;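 note: growth inhibition of the cancer cell line, read out through a cell viability assay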
Description: SANGER: Inhibition of human OCUB-M cell growth in a cell viability assay.

Structure (SMILES) | IC50 [µM]
COc1cc2ncn(-c3cc(OCc4ccccc4S(C)(=O)=O)c(C#N)s3)c2cc1OC [GSK-319347A] | > 5

tested on: A3-KAW; test: cells; type: functional, cell-based, Homo sapiens; conditions: Homo sapiens, A3-KAW;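 note: growth inhibition of human A3-KAW cells, read out with a cell viability assay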
Description: SANGER: Inhibition of human A3-KAW cell growth in a cell viability assay.

Structure (SMILES) | IC50 [µM]
COc1cc2ncn(-c3cc(OCc4ccccc4S(C)(=O)=O)c(C#N)s3)c2cc1OC [GSK-319347A] | > 5

tested on: HAL-01; test: cells; type: functional, cell-based, Homo sapiens; conditions: Homo sapiens, HAL-01;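 note: growth inhibition of human HAL-01 cells, read out with a cell viability assay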
Description: SANGER: Inhibition of human HAL-01 cell growth in a cell viability assay.

Structure (SMILES) | IC50 [µM]
COc1cc2ncn(-c3cc(OCc4ccccc4S(C)(=O)=O)c(C#N)s3)c2cc1OC [GSK-319347A] | > 5

tested on: GR-ST; test: cells; type: functional, cell-based, Homo sapiens; conditions: Homo sapiens, GR-ST
Description: SANGER: Inhibition of human GR-ST cell growth in a cell viability assay.

Structure (SMILES) | IC50 [µM]
COc1cc2ncn(-c3cc(OCc4ccccc4S(C)(=O)=O)c(C#N)s3)c2cc1OC [GSK-319347A] | > 5

tested on: GCIY; test: cells; type: functional, cell-based, Homo sapiens; conditions: Homo sapiens, GCIY;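 note: growth inhibition of the human GCIY cell line, read out by a cell viability assay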
Description: SANGER: Inhibition of human GCIY cell growth in a cell viability assay.

Structure (SMILES) | IC50 [µM]
COc1cc2ncn(-c3cc(OCc4ccccc4S(C)(=O)=O)c(C#N)s3)c2cc1OC [GSK-319347A] | > 5

tested on: HCC2157; test: cells; type: functional, cell-based, Homo sapiens; conditions: Homo sapiens, HCC2157;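 note: growth inhibition of the cancer cell line, read out as cell viability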
Description: SANGER: Inhibition of human HCC2157 cell growth in a cell viability assay.

Structure (SMILES) | IC50 [µM]
COc1cc2ncn(-c3cc(OCc4ccccc4S(C)(=O)=O)c(C#N)s3)c2cc1OC [GSK-319347A] | > 5

tested on: L-363; test: cells; type: functional, cell-based, Homo sapiens; conditions: Homo sapiens, L-363
Description: SANGER: Inhibition of human L-363 cell growth in a cell viability assay.

Structure (SMILES) | IC50 [µM]
COc1cc2ncn(-c3cc(OCc4ccccc4S(C)(=O)=O)c(C#N)s3)c2cc1OC [GSK-319347A] | > 5

tested on: TGW; test: cells; type: functional, cell-based, Homo sapiens; conditions: Homo sapiens, TGW;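 note: growth inhibition of human TGW cells, read out with a cell viability assay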
Description: SANGER: Inhibition of human TGW cell growth in a cell viability assay.

Structure (SMILES) | IC50 [µM]
COc1cc2ncn(-c3cc(OCc4ccccc4S(C)(=O)=O)c(C#N)s3)c2cc1OC [GSK-319347A] | > 5

tested on: MFH-ino; test: cells; type: functional, cell-based, Homo sapiens; conditions: Homo sapiens, MFH-ino;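 note: growth inhibition of human MFH-ino cells, read out by a cell viability assay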
Description: SANGER: Inhibition of human MFH-ino cell growth in a cell viability assay.

Structure (SMILES) | IC50 [µM]
COc1cc2ncn(-c3cc(OCc4ccccc4S(C)(=O)=O)c(C#N)s3)c2cc1OC [GSK-319347A] | > 5

tested on: NOMO-1; test: cells; type: functional, cell-based, Homo sapiens; conditions: Homo sapiens, NOMO-1;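 note: growth inhibition of human NOMO-1 cells measured by a cell viability assay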
Description: SANGER: Inhibition of human NOMO-1 cell growth in a cell viability assay.

Structure (SMILES) | IC50 [µM]
COc1cc2ncn(-c3cc(OCc4ccccc4S(C)(=O)=O)c(C#N)s3)c2cc1OC [GSK-319347A] | > 5

tested on: SK-MEL-1; test: cells; type: functional, cell-based, Homo sapiens; conditions: Homo sapiens, SK-MEL-1;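 note: growth inhibition of human SK-MEL-1 cells, read out by a cell viability assay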
Description: SANGER: Inhibition of human SK-MEL-1 cell growth in a cell viability assay.

Structure (SMILES) | IC50 [µM]
COc1cc2ncn(-c3cc(OCc4ccccc4S(C)(=O)=O)c(C#N)s3)c2cc1OC [GSK-319347A] | > 5

tested on: SK-N-FI; test: cells; type: functional, cell-based, Homo sapiens; conditions: Homo sapiens, SK-N-FI;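 note: cell viability assay measuring growth inhibition of human SK-N-FI cells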
Description: SANGER: Inhibition of human SK-N-FI cell growth in a cell viability assay.

Structure (SMILES) | IC50 [µM]
COc1cc2ncn(-c3cc(OCc4ccccc4S(C)(=O)=O)c(C#N)s3)c2cc1OC [GSK-319347A] | > 5

tested on: COLO-824; test: cells; type: functional, cell-based, Homo sapiens; conditions: Homo sapiens, COLO-824
Description: SANGER: Inhibition of human COLO-824 cell growth in a cell viability assay.

Structure (SMILES) | IC50 [µM]
COc1cc2ncn(-c3cc(OCc4ccccc4S(C)(=O)=O)c(C#N)s3)c2cc1OC [GSK-319347A] | > 5

tested on: NEC8; test: cells; type: functional, cell-based, Homo sapiens; conditions: Homo sapiens, NEC8;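 note: growth inhibition of human NEC8 cells, read out by a cell viability assay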
Description: SANGER: Inhibition of human NEC8 cell growth in a cell viability assay.

Structure (SMILES) | IC50 [µM]
COc1cc2ncn(-c3cc(OCc4ccccc4S(C)(=O)=O)c(C#N)s3)c2cc1OC [GSK-319347A] | > 5

tested on: SW 962; test: cells; type: functional, cell-based, Homo sapiens; conditions: Homo sapiens, SW 962;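 note: growth inhibition of human SW962 cells, read out by a cell viability assay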
Description: SANGER: Inhibition of human SW962 cell growth in a cell viability assay.

Structure (SMILES) | IC50 [µM]
COc1cc2ncn(-c3cc(OCc4ccccc4S(C)(=O)=O)c(C#N)s3)c2cc1OC [GSK-319347A] | > 5

tested on: BB65-RCC; test: cells; type: functional, cell-based, Homo sapiens; conditions: Homo sapiens, BB65-RCC;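 note: growth inhibition of the cell line, measured with a cell viability assay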
Description: SANGER: Inhibition of human BB65-RCC cell growth in a cell viability assay.

Structure (SMILES) | IC50 [µM]
COc1cc2ncn(-c3cc(OCc4ccccc4S(C)(=O)=O)c(C#N)s3)c2cc1OC [GSK-319347A] | > 5

tested on: NCI-H720; test: cells; type: functional, cell-based, Homo sapiens; conditions: Homo sapiens, NCI-H720;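 note: growth inhibition of human NCI-H720 cells determined by a cell viability assay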
Description: SANGER: Inhibition of human NCI-H720 cell growth in a cell viability assay.

Structure (SMILES) | IC50 [µM]
COc1cc2ncn(-c3cc(OCc4ccccc4S(C)(=O)=O)c(C#N)s3)c2cc1OC [GSK-319347A] | > 5

tested on: MOLT-16; test: cells; type: functional, cell-based, Homo sapiens; conditions: Homo sapiens, MOLT-16;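 note: growth inhibition of human MOLT-16 cells, read out with a cell viability assay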
Description: SANGER: Inhibition of human MOLT-16 cell growth in a cell viability assay.

Structure (SMILES) | IC50 [µM]
COc1cc2ncn(-c3cc(OCc4ccccc4S(C)(=O)=O)c(C#N)s3)c2cc1OC [GSK-319347A] | > 5

tested on: GOTO; test: cells; type: functional, cell-based, Homo sapiens; conditions: Homo sapiens, GOTO;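 note: growth inhibition of GOTO cells, read out by a cell viability assay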
Description: SANGER: Inhibition of human GOTO cell growth in a cell viability assay.

Structure (SMILES) | IC50 [µM]
COc1cc2ncn(-c3cc(OCc4ccccc4S(C)(=O)=O)c(C#N)s3)c2cc1OC [GSK-319347A] | > 5

tested on: BE-13; test: cells; type: functional, cell-based, Homo sapiens; conditions: Homo sapiens, BE-13;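 note: growth inhibition of human BE-13 cells, measured with a cell viability assay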
Description: SANGER: Inhibition of human BE-13 cell growth in a cell viability assay.

Structure (SMILES) | IC50 [µM]
COc1cc2ncn(-c3cc(OCc4ccccc4S(C)(=O)=O)c(C#N)s3)c2cc1OC [GSK-319347A] | > 5

tested on: D283 Med; test: cells; type: functional, cell-based, Homo sapiens; conditions: Homo sapiens, D283 Med
Description: SANGER: Inhibition of human D-283MED cell growth in a cell viability assay.

Structure (SMILES) | IC50 [µM]
COc1cc2ncn(-c3cc(OCc4ccccc4S(C)(=O)=O)c(C#N)s3)c2cc1OC [GSK-319347A] | > 5

tested on: J-RT3-T3-5; test: cells; type: functional, cell-based, Homo sapiens; conditions: Homo sapiens, J-RT3-T3-5;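 note: cell viability assay measuring growth inhibition of human J-RT3-T3-5 cells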
Description: SANGER: Inhibition of human J-RT3-T3-5 cell growth in a cell viability assay.

Structure (SMILES) | IC50 [µM]
COc1cc2ncn(-c3cc(OCc4ccccc4S(C)(=O)=O)c(C#N)s3)c2cc1OC [GSK-319347A] | > 5

tested on: KP-N-YS; test: cells; type: functional, cell-based, Homo sapiens; conditions: Homo sapiens, KP-N-YS;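 note: cell viability assay measuring inhibition of cell line growth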
Description: SANGER: Inhibition of human KP-N-YS cell growth in a cell viability assay.

Structure (SMILES) | IC50 [µM]
COc1cc2ncn(-c3cc(OCc4ccccc4S(C)(=O)=O)c(C#N)s3)c2cc1OC [GSK-319347A] | > 5

tested on: L-428; test: cells; type: functional, cell-based, Homo sapiens; conditions: Homo sapiens, L-428
Description: SANGER: Inhibition of human L-428 cell growth in a cell viability assay.

Structure (SMILES) | IC50 [µM]
COc1cc2ncn(-c3cc(OCc4ccccc4S(C)(=O)=O)c(C#N)s3)c2cc1OC [GSK-319347A] | > 5

tested on: LS-1034; test: cells; type: functional, cell-based, Homo sapiens; conditions: Homo sapiens, LS-1034
Description: SANGER: Inhibition of human LS-1034 cell growth in a cell viability assay.

Structure (SMILES) | IC50 [µM]
COc1cc2ncn(-c3cc(OCc4ccccc4S(C)(=O)=O)c(C#N)s3)c2cc1OC [GSK-319347A] | > 5

tested on: 8-MG-BA; test: cells; type: functional, cell-based, Homo sapiens; conditions: Homo sapiens, 8-MG-BA;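 note: growth inhibition of 8-MG-BA cells, read out with a cell viability assay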
Description: SANGER: Inhibition of human 8-MG-BA cell growth in a cell viability assay.

Structure (SMILES) | IC50 [µM]
COc1cc2ncn(-c3cc(OCc4ccccc4S(C)(=O)=O)c(C#N)s3)c2cc1OC [GSK-319347A] | > 5

tested on: IST-MEL1; test: cells; type: functional, cell-based, Homo sapiens; conditions: Homo sapiens, IST-MEL1;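 note: growth inhibition of the cell line, read out with a cell viability assay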
Description: SANGER: Inhibition of human IST-MEL1 cell growth in a cell viability assay.

Structure (SMILES) | IC50 [µM]
COc1cc2ncn(-c3cc(OCc4ccccc4S(C)(=O)=O)c(C#N)s3)c2cc1OC [GSK-319347A] | > 5

tested on: NCI-H1299; test: cells; type: functional, cell-based, Homo sapiens; conditions: Homo sapiens, NCI-H1299;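 note: growth inhibition of human NCI-H1299 cells, read out by a cell viability assay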
Description: SANGER: Inhibition of human NCI-H1299 cell growth in a cell viability assay.

Structure (SMILES) | IC50 [µM]
COc1cc2ncn(-c3cc(OCc4ccccc4S(C)(=O)=O)c(C#N)s3)c2cc1OC [GSK-319347A] | > 5

tested on: BB30-HNC; test: cells; type: functional, cell-based, Homo sapiens; conditions: Homo sapiens, BB30-HNC;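 note: growth inhibition of the cultured cell line, read out by a cell viability assay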
Description: SANGER: Inhibition of human BB30-HNC cell growth in a cell viability assay.

Structure (SMILES) | IC50 [µM]
COc1cc2ncn(-c3cc(OCc4ccccc4S(C)(=O)=O)c(C#N)s3)c2cc1OC [GSK-319347A] | > 5

tested on: NCI-H1395; test: cells; type: functional, cell-based, Homo sapiens; conditions: Homo sapiens, NCI-H1395;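 note: cell viability assay read-out quantifying reduced proliferation of human NCI-H1395 cells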
Description: SANGER: Inhibition of human NCI-H1395 cell growth in a cell viability assay.

Structure (SMILES) | IC50 [µM]
COc1cc2ncn(-c3cc(OCc4ccccc4S(C)(=O)=O)c(C#N)s3)c2cc1OC [GSK-319347A] | > 5

tested on: EW-24; test: cells; type: functional, cell-based, Homo sapiens; conditions: Homo sapiens, EW-24;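 note: human EW-24 cancer cell line, growth inhibition read out via a cell viability assay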
Description: SANGER: Inhibition of human EW-24 cell growth in a cell viability assay.

Structure (SMILES) | IC50 [µM]
COc1cc2ncn(-c3cc(OCc4ccccc4S(C)(=O)=O)c(C#N)s3)c2cc1OC [GSK-319347A] | > 5

tested on: NB6; test: cells; type: functional, cell-based, Homo sapiens; conditions: Homo sapiens, NB6;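 note: growth inhibition of NB6 cells, read out by a cell viability assay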
Description: SANGER: Inhibition of human NB6 cell growth in a cell viability assay.

Structure (SMILES) | IC50 [µM]
COc1cc2ncn(-c3cc(OCc4ccccc4S(C)(=O)=O)c(C#N)s3)c2cc1OC [GSK-319347A] | > 5

tested on: TE-5; test: cells; type: functional, cell-based, Homo sapiens; conditions: Homo sapiens, TE-5;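 note: inhibition of cell growth, read out by a cell viability assay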
Description: SANGER: Inhibition of human TE-5 cell growth in a cell viability assay.

Structure (SMILES) | IC50 [µM]
COc1cc2ncn(-c3cc(OCc4ccccc4S(C)(=O)=O)c(C#N)s3)c2cc1OC [GSK-319347A] | > 5
